Source: US9751886B2, “4-amino-6-phenyl-6,7-dihydro[1,2,3]triazolo[1,5-A]pyrazine derivatives as inhibitors of beta-secretase (BACE)” (Janssen Pharmaceutica NV, priority 2013, dated 2017)

What was measured:
[1] = biological target: T1, recombinant BACE1 protein (Homo sapiens (Human), UniProt P56817); assay: BACE1 Biochemical FRET based assay - Method 1; details: 1 μg/ml BACE1, 10 μM substrate, 120 min, pH 5.0
Source text: (§1) This assay is a Fluorescence Resonance Energy Transfer Assay (FRET) based assay. The substrate for this assay is an APP derived 13 amino acids peptide that contains the ‘Swedish’ Lys-Met/Asn-Leu mutation of the amyloid precursor protein (APP) beta-secretase cleavage site. This substrate also contains two fluorophores: (7-methoxycoumarin-4-yl) acetic acid (Mca) is a fluorescent donor with excitation wavelength at 320 nm and emission at 405 nm and 2,4-Dinitrophenyl (Dnp) is a proprietary quencher acceptor. […] Upon cleavage by BACE1, the fluorophore Mca is separated from the quenching group Dnp, restoring the full fluorescence yield of the donor. The increase in fluorescence is linearly related to the rate of proteolysis.
Briefly in a 384-well format recombinant BACE1 protein in a final concentration of 1 μg/ml is incubated for 120 minutes at room temperature with […] substrate in incubation buffer (40 mM Citrate buffer pH 5.0, 0.04% PEG, 4% DMSO) in the absence or presence of compound. Next the amount of proteolysis is directly measured by fluorescence measurement at T=0 and T=120 (excitation at 320 nm and emission at 405 nm). Results are expressed in RFU (Relative Fluorescence Units), as difference between T120 and TO.

[2] = biological target: T1, recombinant BACE1 protein; assay: BACE1 Biochemical FRET based assay - Method 2; details: 0.04 μg/ml BACE1, 20 μM substrate, 450 min, pH 5.0
Source text: as §1
Briefly in a 384-well format recombinant BACE1 protein in a final concentration of 0.04 μg/ml is incubated for 450 minutes at room temperature with 20 μM substrate in incubation buffer (50 mM Citrate buffer pH 5.0, 0.05% PEG) in the presence of compound or DMSO. Next the amount of proteolysis is directly measured by fluorescence measurement (excitation at 320 nm and emission at 405 nm) at different incubation times (0, 30, 60, 90, 120 and 450 min). For every experiment a time curve (every 30 min between 0 min and 120 min) is used to determine the time where we find the lowest basal signal of the high control. The signal at this time (Tx) is used to subtract from the signal at 450 min. Results are expressed in RFU, as difference between T450 and Tx.

[3] = system: Abeta 1-42 secreted by human neuroblastoma SKNBE2 cells expressing wild type hAPP695; assay: BACE1 cellular αLisa assay in SKNBE2 cells, Abeta 1-42; type: cell-based; details: 18 hours incubation
Method: (§2) In two αLisa assays the levels of Abeta total and Abeta 1-42 produced and secreted into the medium of human neuroblastoma SKNBE2 cells are quantified. The assay is based on the human neuroblastoma SKNBE2 expressing the wild type Amyloid Precursor Protein (hAPP695). The compounds are diluted and added to these cells, incubated for 18 hours and then measurements of Abeta 1-42 and Abeta total are taken. Abeta total and Abeta 1-42 are measured by sandwich αLisa. αLisa is a sandwich assay using biotinylated antibody AbN/25 attached to streptavidin coated beads and antibody Ab4G8 or cAb42/26 conjugated acceptor beads for the detection of Abeta total and Abeta 1-42 respectively. In the presence of Abeta total or Abeta 1-42, the beads come into close proximity. The excitation of the donor beads provokes the release of singlet oxygen molecules that trigger a cascade of energy transfer in the acceptor beads, resulting in light emission.

[4] = system: Abeta total secreted by human neuroblastoma SKNBE2 cells expressing wild type hAPP695; assay: BACE1 cellular αLisa assay in SKNBE2 cells, Abeta total; type: cell-based; details: 18 hours incubation
Method: as §2

[5] = biological target: recombinant BACE2 protein (Homo sapiens (Human), UniProt Q9Y5Z0); assay: BACE2 Biochemical FRET based assay; details: 0.4 μg/ml BACE2, 10 μM substrate, 450 min, pH 5.0
Source text: as §1, with “assay” for “assay is an APP derived 13 amino acids peptide that”, “the beta-secretase,” for “BACE1,”
Briefly in a 384-well format recombinant BACE2 protein in a final concentration of 0.4 μg/ml is incubated for 450 minutes at room temperature with 10 μM substrate in incubation buffer (50 mM Citrate buffer pH 5.0, 0.05% PEG, no DMSO) in the absence or presence of compound. Next the amount of proteolysis is directly measured by fluorescence measurement at T=0 and T=450 (excitation at 320 nm and emission at 405 nm). Results are expressed in RFU (Relative Fluorescence Units), as difference between T450 and TO.

T1 sequence (P56817 46-501): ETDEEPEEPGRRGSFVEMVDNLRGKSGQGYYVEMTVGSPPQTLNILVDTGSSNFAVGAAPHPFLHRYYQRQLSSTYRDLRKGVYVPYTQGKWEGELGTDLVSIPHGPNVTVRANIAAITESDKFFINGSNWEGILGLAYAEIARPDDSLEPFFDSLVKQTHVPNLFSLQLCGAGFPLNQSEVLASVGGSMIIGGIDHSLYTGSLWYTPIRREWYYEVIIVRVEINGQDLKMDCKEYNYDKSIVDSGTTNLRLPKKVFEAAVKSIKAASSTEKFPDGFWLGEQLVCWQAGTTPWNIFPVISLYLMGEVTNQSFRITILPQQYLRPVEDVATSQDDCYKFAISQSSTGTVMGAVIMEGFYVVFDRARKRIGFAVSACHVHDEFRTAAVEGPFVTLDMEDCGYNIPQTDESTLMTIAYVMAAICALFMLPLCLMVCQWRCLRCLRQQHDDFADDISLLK
Chain of recombinant BACE2 protein (Q9Y5Z0 63-518): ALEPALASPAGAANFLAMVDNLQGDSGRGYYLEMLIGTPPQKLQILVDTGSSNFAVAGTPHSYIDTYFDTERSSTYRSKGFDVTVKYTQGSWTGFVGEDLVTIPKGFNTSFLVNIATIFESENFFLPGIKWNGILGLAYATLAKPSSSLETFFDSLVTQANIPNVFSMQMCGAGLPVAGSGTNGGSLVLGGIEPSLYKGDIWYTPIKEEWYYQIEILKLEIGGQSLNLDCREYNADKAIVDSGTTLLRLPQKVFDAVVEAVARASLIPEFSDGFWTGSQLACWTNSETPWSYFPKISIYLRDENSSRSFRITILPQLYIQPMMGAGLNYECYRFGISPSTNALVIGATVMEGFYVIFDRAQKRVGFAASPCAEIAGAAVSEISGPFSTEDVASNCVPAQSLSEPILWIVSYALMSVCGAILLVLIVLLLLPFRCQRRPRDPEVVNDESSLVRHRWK

Row | IC50 ([1]; read-out: BACE1 Biochemical FRET based assay - Method 1 pIC50 (converted)) | BACE1 Biochemical FRET based assay - Method 2 pIC50 [2] | IC50 ([3]; Homo sapiens, read-out: Cellular αLisa assay in SKNBE2 cells Abeta 42 pIC50 (converted)) | IC50 ([4]; Homo sapiens, read-out: Cellular αLisa assay in SKNBE2 cells Abetatotal pIC50 (converted)) | BACE2 Biochemical FRET based assay pIC50 [5] | BACE1 Biochemical FRET based assay - Method 1 pIC50 [1] | Cellular αLisa assay in SKNBE2 cells Abeta 42 pIC50 [3] | Cellular αLisa assay in SKNBE2 cells Abetatotal pIC50 [4] | Structure (SMILES)
1 | 2.04 nM | 8.69 | 1.82 nM | 1.62 nM | 7.81 |  |  |  | COc1cnc(C(=O)Nc2ccc(F)c([C@]3(C)Cn4nncc4C(N)=N3)c2)cn1 [Compound 3, N-{3-[(6R)-4-Amino-6-methyl-6,7-dihydro[1,2,3]triazolo[1,5-a]pyrazin-6-yl]-4-fluorophenyl}-5-methoxypyrazine-2-carboxamide]
2 |  | 8.75 |  |  | 8.56 | 8.76 | 8.77 | 8.88 | C[C@@]1(c2cc(NC(=O)c3ccc(Cl)cn3)ccc2F)Cn2nncc2C(N)=N1 [Compound 4]
